The values below come from ChEMBL document CHEMBL1777813, “Discovery of novel tetracyclic compounds as anaplastic lymphoma kinase inhibitors” (Bioorg Med Chem Lett, 2011).

Calls of active or inactive are those of the source. The calls are words filed in the database; no cut-off is given here.

Data set [1] in a line: Clearance in human liver microsomes at 1 uM after 30 mins in presence of NADPH. The format is ADME, Microsome. A general note: Liver microsomes are vesicles of endoplasmic reticulum, rich in cytochrome P450 enzymes.
The nature of data set [2]: Clearance in mouse liver microsomes at 1 uM after 30 mins in presence of NADPH. Format: ADME, Microsome.
The target in data set [3] is ALK tyrosine kinase receptor (Homo sapiens, UniProt Q9UM73).
The subject of data set [4] is KARPAS-299. Nature of the data set: cells. The conditions noted are these: Homo sapiens, KARPAS-299, 96 h.
Data set [5] has as its target T1, Aurora kinase A (Homo sapiens, UniProt O14965).
T1 sequence (O14965 whole entry): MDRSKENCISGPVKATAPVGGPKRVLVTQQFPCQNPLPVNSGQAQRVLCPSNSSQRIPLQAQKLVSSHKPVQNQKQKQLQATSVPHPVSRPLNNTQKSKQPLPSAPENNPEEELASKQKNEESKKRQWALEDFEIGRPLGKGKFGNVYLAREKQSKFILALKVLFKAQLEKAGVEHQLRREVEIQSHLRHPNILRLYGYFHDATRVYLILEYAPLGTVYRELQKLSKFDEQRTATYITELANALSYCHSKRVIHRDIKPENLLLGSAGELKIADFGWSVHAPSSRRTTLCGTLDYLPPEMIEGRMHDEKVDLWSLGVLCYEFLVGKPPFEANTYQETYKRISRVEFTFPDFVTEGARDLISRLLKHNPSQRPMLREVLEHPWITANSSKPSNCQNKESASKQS
Kind of data set: Inhibition of aurora A assessed as FLC-LRRASLG peptide phosphorylation by fluorescence polarization assay. (In general: Polarisation of emitted light reports the rotation of a fluorescent probe.)

In data set [6] the target is Proto-oncogene tyrosine-protein kinase Src (Homo sapiens, UniProt P12931). Nature of the data set: Inhibition of Src assessed as biotin-EGPWLEEEEEAYGWMDF peptide phosphorylation by TR-FRET assay. In general terms: In TR-FRET formats the signal depends on donor and acceptor labels being close together.
The target in data set [7] is Protein kinase C alpha type (Homo sapiens, UniProt P17252). Kind of data set: Inhibition of PKCalpha assessed as FLC-SIYRRGSRRWRKL peptide phosphorylation by fluorescence polarization assay.
In data set [8] the target is RAC-alpha serine/threonine-protein kinase (Homo sapiens, UniProt P31749). Kind of data set: Inhibition of AKT1 assessed as FI-H1-peptide phosphorylation by fluorescence polarization assay.
The test system of data set [9] is Mus musculus. Nature of the data set: Toxicity in human NCI-H2228 cells expressing EML4-ALK xenografted SCID mouse administered as change in body weight at 0.2 to 20 mg/kg, po qd for 11 days. Format: organism-based. Further details: dose 0.2-20 mg/kg, route oral. As to conditions: in vivo, 264 h.
For data set [10], the target named is Tyrosine-protein kinase ABL1 (Homo sapiens, UniProt P00519). Nature of the data set: Inhibition of Abl assessed as biotin-EGPWLEEEEEAYGWMDF peptide phosphorylation by TR-FRET assay.
For data set [11], the system named is NCI-H2228. Kind of data set: Antitumor activity against human NCI-H2228 cells expressing EML4-ALK xenografted in SCID mouse assessed as tumor regression at 0.2 to 20 mg/kg, po qd for 11 days. Format: functional, organism-based.
For data set [12], the system named is KARPAS-299. Kind of data set: Antitumor activity against human KARPAS299 cells expressing NPM-ALK xenografted in SCID mouse assessed as reduction of tumor volume administered as po qd for 11 days. Format: functional, organism-based.
Data set [13] concerns KARPAS-299. Kind of data set: Antitumor activity against human KARPAS299 cells expressing NPM-ALK xenografted in SCID mouse assessed as tumor regression at 6 to 60 mg/kg, po qd for 11 days. The format is functional, organism-based.
The target of data set [14] is Receptor tyrosine-protein kinase erbB-2 (Homo sapiens, UniProt P04626). Nature of the data set: Inhibition of HER2 assessed as biotin-HEQEDEPEGDYFEWLEPE peptide phosphorylation by TR-FRET assay.
The target of data set [15] is T2, Protein kinase C beta type (Homo sapiens, UniProt P05771). Kind of data set: Inhibition of PKCbeta2 assessed as FLC-SIYRRGSRRWRKL peptide phosphorylation by fluorescence polarization assay.
Data set [16] deals with Mast/stem cell growth factor receptor Kit (Homo sapiens, UniProt P10721). Kind of data set: Inhibition of Kit assessed as biotin-HEQEDEPEGDYFEWLEPE peptide phosphorylation by TR-FRET assay.
Data set [17] concerns the target RAF proto-oncogene serine/threonine-protein kinase (Homo sapiens, UniProt P04049). Nature of the data set: Inhibition of Raf1 assessed as MEK1/2 phosphorylation by fluorescence polarization assay.
Data set [18] concerns the target Epidermal growth factor receptor (Homo sapiens, UniProt P00533). Kind of data set: Inhibition of EGFR assessed as biotin-EGPWLEEEEEAYGWMDF peptide phosphorylation by TR-FRET assay.
The target in data set [19] is Vascular endothelial growth factor receptor 2 (Homo sapiens, UniProt P35968). Kind of data set: Inhibition of KDR assessed as biotin-EGPWLEEEEEAYGWMDF peptide phosphorylation by TR-FRET assay.
Data set [20] concerns the target Fibroblast growth factor receptor 2 (Homo sapiens, UniProt P21802). Kind of data set: Inhibition of FGFR2 assessed as biotin-EGPWLEEEEEAYGWMDF peptide phosphorylation by TR-FRET assay.
Data set [21] relates to NCI-H2228. Nature of the data set: Antitumor activity against human NCI-H2228 cells expressing EML4-ALK xenografted in SCID mouse assessed as reduction of tumor volume administered as po qd for 11 days. The format is functional, organism-based.
In data set [22] the target is Insulin-like growth factor 1 receptor (Homo sapiens, UniProt P08069). Kind of data set: Inhibition of IGF1R assessed as biotin-EGPWLEEEEEAYGWMDF peptide phosphorylation by TR-FRET assay.
The subject of data set [23] is Mus musculus. Kind of data set: Toxicity in human KARPAS299 cells expressing NPM-ALK xenografted SCID mouse administered as change in body weight at 6 to 60 mg/kg, po qd for 11 days. The format is organism-based, KARPAS-299. The arrangement: dose 6-60 mg/kg, route oral. The conditions noted are these: in vivo, 264 h.
The target of data set [24] is T2, Protein kinase C beta type. Kind of data set: Inhibition of PKCbeta1 assessed as FLC-SIYRRGSRRWRKL peptide phosphorylation by fluorescence polarization assay.

Chain of ALK tyrosine kinase receptor (Q9UM73 whole entry): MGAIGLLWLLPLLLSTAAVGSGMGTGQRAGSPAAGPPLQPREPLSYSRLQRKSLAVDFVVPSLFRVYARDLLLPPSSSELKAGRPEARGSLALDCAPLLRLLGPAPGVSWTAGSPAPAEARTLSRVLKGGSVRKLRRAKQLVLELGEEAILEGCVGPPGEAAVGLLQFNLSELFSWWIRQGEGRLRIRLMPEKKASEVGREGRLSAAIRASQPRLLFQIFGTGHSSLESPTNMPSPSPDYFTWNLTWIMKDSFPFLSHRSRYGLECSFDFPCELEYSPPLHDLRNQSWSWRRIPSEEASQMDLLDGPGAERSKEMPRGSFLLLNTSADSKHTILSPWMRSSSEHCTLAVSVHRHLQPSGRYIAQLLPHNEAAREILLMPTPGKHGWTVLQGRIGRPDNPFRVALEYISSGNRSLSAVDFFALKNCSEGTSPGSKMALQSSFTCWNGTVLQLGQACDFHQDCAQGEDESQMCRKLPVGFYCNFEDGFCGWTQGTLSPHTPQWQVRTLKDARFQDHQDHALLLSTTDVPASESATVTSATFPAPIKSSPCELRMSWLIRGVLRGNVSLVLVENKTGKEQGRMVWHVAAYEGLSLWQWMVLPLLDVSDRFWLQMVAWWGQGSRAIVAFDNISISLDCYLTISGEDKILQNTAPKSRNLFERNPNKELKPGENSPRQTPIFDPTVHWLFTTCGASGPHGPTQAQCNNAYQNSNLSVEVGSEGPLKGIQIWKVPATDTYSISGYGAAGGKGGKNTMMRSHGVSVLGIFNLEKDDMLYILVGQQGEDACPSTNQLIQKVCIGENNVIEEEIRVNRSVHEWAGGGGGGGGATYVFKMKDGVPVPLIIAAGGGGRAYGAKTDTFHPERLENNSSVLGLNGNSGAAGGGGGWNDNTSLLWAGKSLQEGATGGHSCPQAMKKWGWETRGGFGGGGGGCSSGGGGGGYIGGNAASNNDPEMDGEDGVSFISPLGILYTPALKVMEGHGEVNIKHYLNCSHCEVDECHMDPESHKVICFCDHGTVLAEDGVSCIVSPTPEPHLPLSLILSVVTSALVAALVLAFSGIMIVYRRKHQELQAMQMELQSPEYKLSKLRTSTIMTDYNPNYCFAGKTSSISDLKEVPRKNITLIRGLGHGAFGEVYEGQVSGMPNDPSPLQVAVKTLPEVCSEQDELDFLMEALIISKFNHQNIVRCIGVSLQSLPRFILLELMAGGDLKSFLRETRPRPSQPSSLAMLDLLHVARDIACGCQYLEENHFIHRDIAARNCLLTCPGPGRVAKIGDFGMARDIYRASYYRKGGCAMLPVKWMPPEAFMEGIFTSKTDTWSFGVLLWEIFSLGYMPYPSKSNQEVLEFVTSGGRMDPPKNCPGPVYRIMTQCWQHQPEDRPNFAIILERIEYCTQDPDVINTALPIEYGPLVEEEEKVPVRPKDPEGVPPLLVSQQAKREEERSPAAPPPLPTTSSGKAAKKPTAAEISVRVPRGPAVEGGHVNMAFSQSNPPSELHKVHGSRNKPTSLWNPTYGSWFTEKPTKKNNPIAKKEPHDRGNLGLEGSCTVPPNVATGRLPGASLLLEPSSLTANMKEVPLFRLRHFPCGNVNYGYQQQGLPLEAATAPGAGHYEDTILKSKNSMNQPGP
T2 sequence (P05771 whole entry): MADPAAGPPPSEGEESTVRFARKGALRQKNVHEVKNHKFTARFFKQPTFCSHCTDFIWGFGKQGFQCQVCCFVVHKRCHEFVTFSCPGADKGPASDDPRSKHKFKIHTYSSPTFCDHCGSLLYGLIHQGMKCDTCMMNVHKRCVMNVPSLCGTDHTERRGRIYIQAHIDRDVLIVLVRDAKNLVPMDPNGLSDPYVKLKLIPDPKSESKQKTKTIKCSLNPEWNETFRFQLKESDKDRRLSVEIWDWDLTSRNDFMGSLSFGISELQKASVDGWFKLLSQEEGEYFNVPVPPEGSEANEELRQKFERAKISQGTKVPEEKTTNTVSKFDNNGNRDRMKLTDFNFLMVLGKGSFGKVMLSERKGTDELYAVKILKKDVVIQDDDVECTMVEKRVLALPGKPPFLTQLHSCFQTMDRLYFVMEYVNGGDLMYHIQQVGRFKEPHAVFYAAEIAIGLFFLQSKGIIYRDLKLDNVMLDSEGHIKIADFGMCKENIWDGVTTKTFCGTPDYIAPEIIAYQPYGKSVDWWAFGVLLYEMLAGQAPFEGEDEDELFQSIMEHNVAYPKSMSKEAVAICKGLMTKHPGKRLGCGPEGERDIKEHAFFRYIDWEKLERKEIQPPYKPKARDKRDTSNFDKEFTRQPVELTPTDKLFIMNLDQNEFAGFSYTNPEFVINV
Chain of RAC-alpha serine/threonine-protein kinase (P31749 whole entry): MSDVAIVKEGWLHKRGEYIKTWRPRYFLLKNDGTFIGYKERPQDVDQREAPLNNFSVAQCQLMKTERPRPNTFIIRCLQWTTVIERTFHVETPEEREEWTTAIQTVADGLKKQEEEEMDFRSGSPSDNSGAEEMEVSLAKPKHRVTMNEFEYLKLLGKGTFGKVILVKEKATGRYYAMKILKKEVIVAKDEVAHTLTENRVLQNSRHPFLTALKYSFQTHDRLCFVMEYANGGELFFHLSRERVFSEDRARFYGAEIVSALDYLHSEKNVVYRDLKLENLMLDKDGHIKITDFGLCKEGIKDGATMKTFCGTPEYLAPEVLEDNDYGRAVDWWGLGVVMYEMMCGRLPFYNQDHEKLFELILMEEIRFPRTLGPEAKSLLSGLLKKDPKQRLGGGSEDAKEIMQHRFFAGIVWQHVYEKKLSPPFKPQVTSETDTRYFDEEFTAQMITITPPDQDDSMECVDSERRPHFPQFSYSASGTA
Chain of Vascular endothelial growth factor receptor 2 (P35968 whole entry): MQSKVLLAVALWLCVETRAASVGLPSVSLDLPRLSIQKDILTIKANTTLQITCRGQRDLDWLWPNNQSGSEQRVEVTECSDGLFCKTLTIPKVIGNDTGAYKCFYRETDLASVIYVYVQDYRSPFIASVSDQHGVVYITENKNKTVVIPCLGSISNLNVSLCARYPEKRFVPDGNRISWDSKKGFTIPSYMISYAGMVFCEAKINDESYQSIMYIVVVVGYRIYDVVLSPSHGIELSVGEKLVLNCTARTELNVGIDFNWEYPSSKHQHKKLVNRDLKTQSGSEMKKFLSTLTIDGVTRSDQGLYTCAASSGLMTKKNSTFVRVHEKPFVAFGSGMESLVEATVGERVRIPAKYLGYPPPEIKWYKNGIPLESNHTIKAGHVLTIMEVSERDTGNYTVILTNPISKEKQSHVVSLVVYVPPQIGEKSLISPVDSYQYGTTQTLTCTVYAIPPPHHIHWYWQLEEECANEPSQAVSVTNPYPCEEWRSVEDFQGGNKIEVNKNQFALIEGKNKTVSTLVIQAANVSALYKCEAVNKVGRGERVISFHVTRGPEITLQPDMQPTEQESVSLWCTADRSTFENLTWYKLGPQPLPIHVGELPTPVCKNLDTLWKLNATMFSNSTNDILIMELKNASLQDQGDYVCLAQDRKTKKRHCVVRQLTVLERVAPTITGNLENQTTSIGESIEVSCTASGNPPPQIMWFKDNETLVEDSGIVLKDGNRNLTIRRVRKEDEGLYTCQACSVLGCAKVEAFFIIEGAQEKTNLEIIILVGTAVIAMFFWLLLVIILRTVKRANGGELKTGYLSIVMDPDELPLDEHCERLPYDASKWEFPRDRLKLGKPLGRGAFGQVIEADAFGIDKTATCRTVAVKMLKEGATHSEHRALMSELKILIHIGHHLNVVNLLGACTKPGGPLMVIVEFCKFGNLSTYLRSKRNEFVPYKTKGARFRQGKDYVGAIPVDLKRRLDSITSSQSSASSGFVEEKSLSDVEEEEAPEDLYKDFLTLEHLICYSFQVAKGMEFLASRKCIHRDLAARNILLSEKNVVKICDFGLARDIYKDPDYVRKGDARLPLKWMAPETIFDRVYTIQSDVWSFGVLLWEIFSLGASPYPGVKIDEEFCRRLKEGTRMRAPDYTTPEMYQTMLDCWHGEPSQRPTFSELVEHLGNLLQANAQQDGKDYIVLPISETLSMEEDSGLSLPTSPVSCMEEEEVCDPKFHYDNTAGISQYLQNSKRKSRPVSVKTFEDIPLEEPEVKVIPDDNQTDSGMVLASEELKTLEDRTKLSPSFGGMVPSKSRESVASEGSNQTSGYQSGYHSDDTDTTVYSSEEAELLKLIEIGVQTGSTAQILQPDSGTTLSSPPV
Chain of Proto-oncogene tyrosine-protein kinase Src (P12931 2-536 limits assumed): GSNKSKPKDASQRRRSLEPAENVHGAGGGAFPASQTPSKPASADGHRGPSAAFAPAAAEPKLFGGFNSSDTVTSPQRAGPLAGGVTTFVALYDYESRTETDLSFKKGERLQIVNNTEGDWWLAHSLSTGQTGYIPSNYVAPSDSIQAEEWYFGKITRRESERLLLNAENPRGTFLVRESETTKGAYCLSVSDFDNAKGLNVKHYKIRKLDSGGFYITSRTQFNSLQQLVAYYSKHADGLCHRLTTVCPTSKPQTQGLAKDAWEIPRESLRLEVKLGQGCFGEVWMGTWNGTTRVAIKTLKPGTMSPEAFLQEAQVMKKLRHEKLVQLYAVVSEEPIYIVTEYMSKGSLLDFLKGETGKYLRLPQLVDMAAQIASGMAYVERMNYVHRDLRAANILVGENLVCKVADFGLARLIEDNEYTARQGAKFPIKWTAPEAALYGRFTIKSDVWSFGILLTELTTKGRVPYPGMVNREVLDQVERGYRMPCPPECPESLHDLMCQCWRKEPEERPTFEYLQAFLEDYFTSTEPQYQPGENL

For the molecule `CC1(C)c2cc(N3CCOCC3)ccc2C(=O)c2c1[nH]c1cc(C#N)ccc21`, the values for the microsomal CLint at 1 µM in data set [1] and in data set [2] were 33.6 µL/min/mg and 8.1 µL/min/mg, respectively. In addition, the IC50 (as a rule, the concentration needed to halve the response being measured) in data set [3] came out at 18.5 nM; in data set [4] it was 134 nM.

`CCN(CC)CCOc1ccc2c(c1)C(C)(C)c1[nH]c3cc([N+](=O)[O-])ccc3c1C2=O` showed an IC50 in data set [4] of 570 nM.

As to `CC1(C)c2cc(N3CCCCC3)ccc2C(=O)c2c1[nH]c1cc(C#N)ccc21`, the intrinsic clearance (microsomal CLint) (as a rule, the rate of metabolic loss divided by the concentration) at 1 µM amounted to 39.5 µL/min/mg in [1] and 58.9 µL/min/mg in data set [2]. Moreover, the IC50 in [3] was found to be 33.4 nM; in data set [4], 331 nM.

Consider `CCN(CC)CCOc1ccc2c(c1)C(C)(C)c1[nH]c3cc(Br)ccc3c1C2=O`, for which, in data set [4], the IC50 is 680 nM.

In data set [3], `CCN(CC)CCOc1ccc2c(c1)C(C)(C)c1oc3cc(Br)ccc3c1C2=O` showed an IC50 of 770 nM.

Molecule `CCN(CC)CCOc1ccc2c(c1)C(C)(C)c1oc3cc(C(F)(F)F)ccc3c1C2=O` gave an IC50 in data set [3] of 3470 nM.

For `CC1(C)c2cc(OCCN3CCS(=O)(=O)CC3)ccc2C(=O)c2c1[nH]c1cc(C#N)ccc21`, the microsomal CLint at 1 µM in data set [1] stood at 67 µL/min/mg; in [2], 24.9 µL/min/mg. For the same molecule, the half-maximal inhibitory concentration (IC50) turned out to be 3.7 nM in [3] and 87.5 nM in data set [4].

Regarding `CCCOc1ccc2c3c(oc2c1)C(C)(C)c1cc(OCCN(CC)CC)ccc1C3=O`, the IC50 in data set [3] was found to be 2470 nM.

Consider `CC1(C)c2cc(N3CCN(C4COC4)CC3)ccc2C(=O)c2c1[nH]c1cc(C#N)ccc21`, for which the microsomal CLint at 1 µM in data set [1] is 9.6 µL/min/mg; in data set [2], 15.1 µL/min/mg. Moreover, the values for the IC50 in data set [3] and in data set [4] were 27 nM and 47.9 nM, respectively.

Regarding `CC(=O)NCCOc1ccc2c(c1)C(C)(C)c1[nH]c3cc(C#N)ccc3c1C2=O`, the values for the microsomal CLint at 1 µM in data set [1] and in data set [2] were 4.2 µL/min/mg and 14.1 µL/min/mg, respectively. In addition, the IC50 in [3] is 11.6 nM; in data set [4], 397 nM.

In the case of `CC1(C)c2cc(N3CCN(S(C)(=O)=O)CC3)ccc2C(=O)c2c1[nH]c1cc(C#N)ccc21`, the intrinsic clearance (microsomal CLint) at 1 µM came out at 19.2 µL/min/mg in [1] and 15.8 µL/min/mg in data set [2]. Also, the concentration for half-maximal inhibition (IC50) in data set [3] worked out at 37.4 nM; in data set [4], 263 nM.

For `CC1(C)c2cc(N3CCC(O)CC3)ccc2C(=O)c2c1[nH]c1cc(C#N)ccc21`, the microsomal CLint at 1 µM in [1] worked out at 7.1 µL/min/mg; in data set [2], 24.6 µL/min/mg. Also, the IC50 was 11.4 nM in [3] and 115 nM in [4].

Regarding `CC1(C)c2cc(OCCNC(N)=O)ccc2C(=O)c2c1[nH]c1cc(C#N)ccc21`, the microsomal CLint at 1 µM was found to be 4 µL/min/mg in data set [1] and 6.8 µL/min/mg in data set [2]. The half-inhibitory concentration (IC50) in [4] was 2310 nM.

In [4], `CCN(CC)CCOc1ccc2c(c1)C(C)(C)c1[nH]c3cc(Cl)ccc3c1C2=O` returned an IC50 of 490 nM.

Take `CCN(CC)CCOc1ccc2c(c1)C(C)(C)c1oc3cc(Cl)ccc3c1C2=O`: the midpoint of inhibition in data set [3], the IC50, lay at 660 nM.

On to `CCN(CC)CCOc1ccc2c(c1)C(C)(C)c1[nH]c3cc(C#N)ccc3c1C2=O`, for which the intrinsic clearance (microsomal CLint) at 1 µM in [1] came to 54.5 µL/min/mg; in data set [2], 51.4 µL/min/mg. The concentration for half-maximal inhibition (IC50) in data set [4] came to 60 nM.

In the case of `CC1(C)c2cc(C3CCN(C4COC4)CC3)ccc2C(=O)c2c1[nH]c1cc(C#N)ccc21`, the IC50 in data set [5] is over 50000 nM; in data set [6], 250 nM; in data set [7], over 50000 nM; in data set [8], over 50000 nM; in [10] it was 370 nM; in [14] it was over 50000 nM. In addition, the half-maximal inhibitory concentration (IC50) in data set [15] is over 50000 nM; in [16], over 50000 nM; in [17], over 50000 nM; in data set [18], over 50000 nM; in data set [19], 100 nM; in data set [20] it was 360 nM. Further, the IC50 was 1000 nM in data set [22] and over 50000 nM in data set [24]. The figures for the microsomal CLint at 1 µM in data set [1] and in data set [2] were 10.2 µL/min/mg and 10.4 µL/min/mg, respectively. In addition, the Activity entry in data set [9] is “Non-toxic”; in [12], “Dose-dependent effect”; in data set [21], “Dose-dependent effect”; in data set [23], “Non-toxic”. The result in data set [11] and in data set [13] was Active.

Take `CC(C)N1CCN(c2ccc3c(c2)C(C)(C)c2[nH]c4cc(C#N)ccc4c2C3=O)CC1`: the microsomal CLint at 1 µM in [1] came out at 82.7 µL/min/mg; in data set [2], 23.1 µL/min/mg.
